According to patent publication US20100323955A1, “METHODS FOR TREATING OBESITY AND OBESITY RELATED DISEASES AND DISORDERS” (AMYLIN PHARMACEUTICALS, INC., priority 2007, published 2010):

Columns and labels:
[1] = Example 7: amylin and PYY(3-36) in DIO rats, body weight and body composition; format: in vivo, rat; conditions: after two weeks, FIG. 16C
Protocol: (§1) Food intake and body weight was recorded daily. Body composition was measured prior to and after drug treatment using NMR (Echo Medical Systems, Houston, Tex.). For body composition measurements, rats were briefly placed (˜1 min) in a well-ventilated plexiglass tube that was then inserted into a specialized rodent NMR machine. Rats were scanned prior to pump implantation and on the final day of the experiment. This enabled the calculation of changes in actual grams of fat and dry lean tissue (e.g., grams of body fat after treatment−grams of body fat at baseline=change in grams of body fat) and changes in % body composition for fat and dry lean tissue (e.g., % body fat after treatment−% body fat at baseline=change in % body fat).

[2] = Example 6: amylin and exendin-4 analog in DIO rats, body weight and body composition; format: in vivo, rat; conditions: after two weeks, FIG. 15C
Protocol: as §1, with “[…]. Prior to drug administration rats had typically attained a mean” for “Food intake and”, “weight of 500 g Exendin-4 analog was administered by minipump at a range of doses (0.3, 1, 3, 10, 30 μg/kg/day). Amylin (dissolved in 50% DMSO in water) or vehicle was administered by mini-pump (100 μg/kg/day). Body weight and food intake” for “weight”

[3] = Example 5: amylin and rimonabant (CB-1 antagonist) in DIO rats, body weight and body composition; format: in vivo, rat; conditions: after two weeks, FIG. 12C
Protocol: These rats were developed by Barry Levin from a line of Crl:CD®(SD)BR rats that are prone to become obese on a diet relatively high in fat and energy. They were housed individually in shoebox cages at 22 C in a 12/12-hour light dark cycle. […] Rats were habituated to oral gavage for 1 week prior to treatment. Rimonabant was administered at a range of doses (0.1, 0.3, 1.0, 3.0. 10 mg/kg/day) by oral gavage. Amylin (dissolved in 50% DMSO sterile water) or vehicle was administered by mini-pump (100 μg/kg/day). Rimonabant was always delivered just prior to lights out. Food intake and body weight were measured at 1 and 2 weeks post-treatment. Body composition was measured prior to and after drug treatment using NMR (Echo Medical Systems, Houston, Tex.). For body composition measurements, rats were briefly placed (˜1 min) in a well-ventilated plexiglass tube that was then inserted into a specialized rodent NMR machine. Rats were scanned prior to pump implantation and on the final day of the experiment. This enabled the calculation of changes in actual grams of fat and dry lean tissue (e.g., grams of body fat after treatment−grams of body fat at baseline=change in grams of body fat) and changes in % body composition for fat and dry lean tissue (e.g., % body fat after treatment−% body fat at baseline=change in % body fat).

[4] = Example 4: amylin and phentermine in DIO rats, body weight and body composition; format: in vivo, rat; conditions: after two weeks, FIG. 11C
Protocol: The combination of amylin and catecholaminergic agonist, phentermine, were also tested for effects on changes in body weight and body composition. Phentermine is classically referred to as a catecholaminergic agonist as it actually hits NA/5-HT receptors. DIO male rats were fattened and divided into four treatment groups, as described above. Each group was implanted with subcutaneous osmotic mini-pumps and/or inserted with an oral gavage, designed to deliver vehicle, phentermine (10 mg/kg/day), amylin (100 μg/kg/day) or phentermine (10 mg/kg/day)+amylin (100 μg/kg/day) for a 14 day period. The mini-pump contained either vehicle (50% DMSO in water) or amylin while the oral gavage administered either sterile water or phentermine Body weight was recorded daily and body composition was measured prior to and after drug treatment using NMR.

[5] = Example 3: serum leptin levels (immunoassay) in DIO prone and normal HSD rats after amylin; format: in vivo, rat; conditions: amylin 100 μg/kg/day, 14 days, FIG. 8
Protocol: DIO prone and normal HSD rats were divided into three treatment groups. Two groups were implanted with subcutaneous osmotic mini-pumps (DURECT Corp., Cupertino, Calif.) designed to deliver vehicle or amylin (100 μg/kg/day) and the third group was pair-fed to the amount consumed by the amylin-treated group for a 14 day period. Serum leptin levels were determined by immunoassays using a commercial kit (Linco Research, Inc., St. Charles, Mo.). […] Thus, DIO prone rats are hyper-leptinemic.

[6] = Example 4: amylin and sibutramine in DIO rats, body weight and body composition; format: in vivo, rat; conditions: after two weeks, FIG. 10C
Protocol: as §1, with “Rat amylin was dissolved in 50% DMSO in sterile water and sibutramine was dissolved in sterile water. Each group was implanted with subcutaneous osmotic mini-pumps designed to deliver vehicle, sibutramine (3 mg/kg/day) or amylin (100 μg/kg/day) for a 14 day period. Body weight and food” for “Food”, “were” for “and body weight was”

[7] = Example 8: 24-week randomized, double-blind clinical study of pramlintide and metreleptin in overweight and obese subjects; format: in vivo, human; conditions: for rate of change in body weight, late rate (12-20 weeks): 24-week study, FIG. 24
Protocol: To evaluate inter alia the safety, tolerability and effect of the combination of an amylin agonist (pramlintide) and a leptin (metreleptin) on changes in body weight, a 24-week, randomized, double-blind, active-drug-controlled, multicenter study was conducted under USFDA approved protocols. Secondary objectives of the study were the determination of the pharmacokinetics of pramlintide and leptin, waist circumference, rate of change in body weight, and patient reported outcomes including for example without limitation perception of well-being related to weight change and mood. The study enrolled overweight and obese subjects with defined BMI ([…]), with enrollment statistics as provided in Table 2. […] Subjects treated with pramlintide/metreleptin lost an average of 25 pounds from the start of the 24-week study compared with an average of 17 pounds for subjects treated with pramlintide alone.
In an initial lead-in phase, all subjects received dietary instructions and treatment with pramlintide at 180 mcg BID for two weeks, followed by pramlintide at 360 mcg BID for two weeks. Subjects who completed the 4-week lead-in period and who lost 2-8 percent body weight during this period were eligible to continue the study. The term “enrolled” (Table 2) refers to subjects (N=177) receiving at least one dose of pramlintide during the lead-in period. The term “non-randomized” refers to subjects not continuing in the study past the lead-in period. The term “evaluable” refers to subjects who completed Visit 9 (Week 16) study procedures and adequately complied with the study protocol.
After the 4-week lead-in period, for the remaining 20 weeks of the study the subjects were randomized in a 2:2:1 ratio to one of three groups with BID treatment of 1) pramlintide 360 mcg/metreleptin 5 mg (“Leptin+Pramlintide”); 2) pramlintide 360 mcg/placebo (“Pramlintide”); or 3) metreleptin 5 mg/placebo (“Leptin”).

## Rat amylin
[1]
  changes in body protein (lean (protein) mass): increase in lean (protein) mass
[2]
  changes in body protein (lean (protein) mass): relatively equivalent increase in lean (protein) mass
[3]
  changes in body protein (lean (protein) mass): relatively equivalent increase in lean (protein) mass
[4]
  changes in body protein (lean (protein) mass): preserved lean (protein) mass
[5]; DIO prone rats
  plasma (serum) leptin levels, DIO prone animals: significantly reduced
[5]; normal HSD rats
  plasma (serum) leptin levels, normal animals: significantly reduced
[6]
  changes in body protein (lean (protein) mass): increase in lean (protein) mass

## CC(C)CC(N(C)C)C1(c2ccc(Cl)cc2)CCC1 (stereo not drawn) [sibutramine, reference compound]
[6]
  changes in body protein (lean (protein) mass): relatively unchanged

## recombinant methionyl human leptin [metreleptin]
[7]
  rate of change in body weight, late rate (12-20 weeks): approached a late rate of zero

## Cc1c(C(=O)NN2CCCCC2)nn(-c2ccc(Cl)cc2Cl)c1-c1ccc(Cl)cc1 [rimonabant, reference compound]
[3]
  changes in body protein (lean (protein) mass): relatively equivalent increase in lean (protein) mass

## ^14Leu-exendin-4 [Exendin-4 analog]
[2]
  changes in body protein (lean (protein) mass): relatively equivalent increase in lean (protein) mass

## CC(C)(N)Cc1ccccc1 [phentermine, reference compound]
[4]
  changes in body protein (lean (protein) mass): unchanged or tended to be lost

## CC[C@H](C)[C@H](NC(=O)[C@@H]1CCCN1C(=O)CNC(=O)[C@H](Cc1ccccc1)NC(=O)[C@H](CC(N)=O)NC(=O)[C@H](CC(N)=O)NC(=O)[C@H](CO)NC(=O)[C@H](CO)NC(=O)[C@H](Cc1c[nH]cn1)NC(=O)[C@@H](NC(=O)[C@H](CC(C)C)NC(=O)[C@H](Cc1ccccc1)NC(=O)[C@H](CC(N)=O)NC(=O)[C@H](C)NC(=O)[C@H](CC(C)C)NC(=O)[C@H](CCCNC(=N)N)NC(=O)[C@H](CCC(N)=O)NC(=O)[C@@H](NC(=O)[C@H](C)NC(=O)[C@@H]1CSSC[C@H](NC(=O)[C@@H](N)CCCCN)C(=O)N[C@@H](CC(N)=O)C(=O)N[C@@H]([C@@H](C)O)C(=O)N[C@@H](C)C(=O)N[C@@H]([C@@H](C)O)C(=O)N1)[C@@H](C)O)C(C)C)C(=O)N[C@@H](CC(C)C)C(=O)N1CCC[C@H]1C(=O)N1CCC[C@H]1C(=O)N[C@H](C(=O)N[C@@H](CC(N)=O)C(=O)N[C@H](C(=O)NCC(=O)N[C@@H](CO)C(=O)N[C@@H](CC(N)=O)C(=O)N[C@H](C(=O)N[C@@H](Cc1ccc(O)cc1)C(N)=O)[C@@H](C)O)C(C)C)[C@@H](C)O [pramlintide, ^25,28,29Pro-h-amylin]
[7]; 4-week lead-in, all subjects received pramlintide 180 then 360 mcg BID, columns name the later randomization groups
  Mean Change in Body Weight (kg) over lead-in period: -3.65 kg
[7]
  rate of change in body weight, late rate (12-20 weeks): approached a late rate of zero
[7]; overweight and obese subjects, pramlintide 360 mcg BID, metreleptin 5 mg BID, p<0.001
  body weight reduced on average at the end of the 24-week study: 8.4%
